Test results: the supplement of paper PMC11451515

Columns and labels:
Conditions in all cases: 48 h
P12-Ichikawa [1] = test: cell viability relative to DMSO control; higher = less cytotoxic
Method in brief: (§1)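 NOMO1, SEM and P12-Ichikawa leukemia cells spent at least four passages adapting to each medium before use. They were seeded at 500 cells/well (NOMO1, SEM) or 1000 cells/well (P12-Ichikawa) in 5 μl in 1536-well plates and pin-dosed with library compounds in DMSO at 11 threefold steps from 47 μM down to 0.79 nM. After 48 h at 37°C, CellTiter-Glo One luminescence was read. Viability is reported as a percentage of the DMSO wells on each plate, with cell-free wells as background.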

NOMO1 [2] = test: as above
Method in brief: as §1

SEM cells [3] = test: as above
Method in brief: as §1

P12-Ichikawa [4] = test: AUC of viability dose-response curve (% viability x log10 dose units); higher = less sensitive
Method in brief: (§2)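 Leukemia cells adapted to each medium were seeded in 1536-well plates (500 or 1000 cells/well) and given library compounds in DMSO for 48 h at 37°C. The 11 threefold doses spanned 47 μM to 0.79 nM, and CellTiter-Glo One luminescence was normalised per plate to DMSO and cell-free wells before four-parameter log-logistic fitting on log10 dose. Area under the curve was integrated with the trapezoidal rule, scaling curves above full viability and removing curves that failed quality control.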

NOMO1 [5] = test: as above
Method in brief: as §2

SEM cells [6] = test: as above
Method in brief: as §2

CC[C@@H]1[C@@H](C)O[C@@](O)([C@@H](C)[C@H](O)[C@H](C)[C@H]2OC(=O)/C=C/C=C/[C@H](C)[C@@H]([C@@H](C)[C@@H](O)[C@H](C)[C@@]3(O)C[C@@H](O[C@H]4C[C@H](O)[C@H](O)[C@H](C)O4)[C@H](CC)[C@@H](C)O3)OC(=O)/C=C/C=C/[C@@H]2C)C[C@H]1O[C@H]1C[C@H](O)[C@H](O)[C@H](C)O1
cell viability [%]
Conditions | NOMO1 [2] | P12-Ichikawa [1] | SEM cells [3]
HPLM + 10% dialyzed FBS, 0.000781 µM | – | – | 98.9
HPLM + 10% dialyzed FBS, 0.00234 µM | – | – | 114
HPLM + 10% dialyzed FBS, 0.00702 µM | – | – | 115
HPLM + 10% dialyzed FBS, 0.0211 µM | – | – | 104
HPLM + 10% dialyzed FBS, 0.0632 µM | – | – | 130
HPLM + 10% dialyzed FBS, 0.19 µM | – | – | 113
HPLM + 10% dialyzed FBS, 0.569 µM | – | – | 105
HPLM + 10% dialyzed FBS, 1.71 µM | – | – | 101
HPLM + 10% dialyzed FBS, 5.12 µM | – | – | 6.3
HPLM + 10% dialyzed FBS, 15.4 µM | – | – | 29.3
HPLM + 10% dialyzed FBS, 46.1 µM | – | – | 5.37
RPMI 5 mM glucose + 10% FBS, 0.000781 µM | 111 | – | 113
RPMI 5 mM glucose + 10% FBS, 0.00234 µM | 117 | – | 106
RPMI 5 mM glucose + 10% FBS, 0.00702 µM | 129 | – | 125
RPMI 5 mM glucose + 10% FBS, 0.0211 µM | 121 | – | 101
RPMI 5 mM glucose + 10% FBS, 0.0632 µM | 118 | – | 109
RPMI 5 mM glucose + 10% FBS, 0.19 µM | 132 | – | 114
RPMI 5 mM glucose + 10% FBS, 0.569 µM | 128 | – | 101
RPMI 5 mM glucose + 10% FBS, 1.71 µM | 121 | – | 88.9
RPMI 5 mM glucose + 10% FBS, 5.12 µM | 6.11 | – | 7.21
RPMI 5 mM glucose + 10% FBS, 15.4 µM | 17.5 | – | 11.6
RPMI 5 mM glucose + 10% FBS, 46.1 µM | 2.97 | – | 4.01
RPMI 5 mM glucose + 10% dialyzed FBS, 0.000781 µM | – | 117 | 112
RPMI 5 mM glucose + 10% dialyzed FBS, 0.00234 µM | – | 121 | 121
RPMI 5 mM glucose + 10% dialyzed FBS, 0.00702 µM | – | 115 | 108
RPMI 5 mM glucose + 10% dialyzed FBS, 0.0211 µM | – | 131 | 118
RPMI 5 mM glucose + 10% dialyzed FBS, 0.0632 µM | – | 126 | 113
RPMI 5 mM glucose + 10% dialyzed FBS, 0.19 µM | – | 127 | 128
RPMI 5 mM glucose + 10% dialyzed FBS, 0.569 µM | – | 142 | 92.3
RPMI 5 mM glucose + 10% dialyzed FBS, 1.71 µM | – | 139 | 77.1
RPMI 5 mM glucose + 10% dialyzed FBS, 5.12 µM | – | 7.66 | 7.23
RPMI 5 mM glucose + 10% dialyzed FBS, 15.4 µM | – | 60.8 | 19
RPMI 5 mM glucose + 10% dialyzed FBS, 46.1 µM | – | 2.82 | 4.96

AUC of viability dose-response curve
Conditions | NOMO1 [5] | P12-Ichikawa [4] | SEM cells [6]
HPLM + 10% dialyzed FBS | 370 | 374 | 368
RPMI 5 mM glucose + 10% FBS | 366 | 403 | 357
RPMI 5 mM glucose + 10% dialyzed FBS | 372 | 380 | 351

C=CCNc1c(O)cc2c(O)c1C[C@@H](C)C[C@H](OC)[C@H](O)[C@@H](C)/C=C(/C)[C@H](OC(N)=O)[C@@H](OC)/C=C\C=C(\C)C(=O)N2
AUC of viability dose-response curve
Conditions | NOMO1 [5] | P12-Ichikawa [4] | SEM cells [6]
HPLM + 10% dialyzed FBS | 419 | 428 | 336
RPMI 5 mM glucose + 10% FBS | 411 | 398 | 324
RPMI 5 mM glucose + 10% dialyzed FBS | 401 | 410 | 305

CCc1cc2c(cc1N1CCC(N3CCOCC3)CC1)C(C)(C)c1[nH]c3cc(C#N)ccc3c1C2=O
cell viability [%]
Conditions | NOMO1 [2] | P12-Ichikawa [1] | SEM cells [3]
HPLM + 10% dialyzed FBS, 0.000781 µM | 83.9 | 100 | 60.6
HPLM + 10% dialyzed FBS, 0.00234 µM | 68.5 | 99.5 | 55
HPLM + 10% dialyzed FBS, 0.00702 µM | 94.7 | 110 | 70.7
HPLM + 10% dialyzed FBS, 0.0211 µM | 117 | 130 | 102
HPLM + 10% dialyzed FBS, 0.0632 µM | 135 | 138 | 122
HPLM + 10% dialyzed FBS, 0.19 µM | 151 | 130 | 121
HPLM + 10% dialyzed FBS, 0.569 µM | 134 | 131 | 114
HPLM + 10% dialyzed FBS, 1.71 µM | 121 | 121 | 99
HPLM + 10% dialyzed FBS, 5.12 µM | 105 | 116 | 95.6
HPLM + 10% dialyzed FBS, 15.4 µM | 102 | 115 | 70.2
HPLM + 10% dialyzed FBS, 46.1 µM | 68.3 | 65.3 | 28.1
RPMI 5 mM glucose + 10% FBS, 0.000781 µM | 91.1 | 73.7 | 53.8
RPMI 5 mM glucose + 10% FBS, 0.00234 µM | 83.2 | 73.3 | 49.4
RPMI 5 mM glucose + 10% FBS, 0.00702 µM | 102 | 97.2 | 71.1
RPMI 5 mM glucose + 10% FBS, 0.0211 µM | 119 | 134 | 77.1
RPMI 5 mM glucose + 10% FBS, 0.0632 µM | 126 | 126 | 107
RPMI 5 mM glucose + 10% FBS, 0.19 µM | 132 | 124 | 107
RPMI 5 mM glucose + 10% FBS, 0.569 µM | 124 | 130 | 103
RPMI 5 mM glucose + 10% FBS, 1.71 µM | 112 | 100 | 96.7
RPMI 5 mM glucose + 10% FBS, 5.12 µM | 117 | 110 | 88.3
RPMI 5 mM glucose + 10% FBS, 15.4 µM | 114 | 107 | 46.7
RPMI 5 mM glucose + 10% FBS, 46.1 µM | 58.8 | 102 | 12.8
RPMI 5 mM glucose + 10% dialyzed FBS, 0.000781 µM | 80.3 | 86.2 | 60.3
RPMI 5 mM glucose + 10% dialyzed FBS, 0.00234 µM | 73.9 | 81.9 | 54.3
RPMI 5 mM glucose + 10% dialyzed FBS, 0.00702 µM | 71.7 | 108 | 73.8
RPMI 5 mM glucose + 10% dialyzed FBS, 0.0211 µM | 107 | 127 | 97.7
RPMI 5 mM glucose + 10% dialyzed FBS, 0.0632 µM | 125 | 136 | 111
RPMI 5 mM glucose + 10% dialyzed FBS, 0.19 µM | 133 | 128 | 129
RPMI 5 mM glucose + 10% dialyzed FBS, 0.569 µM | 120 | 125 | 103
RPMI 5 mM glucose + 10% dialyzed FBS, 1.71 µM | 111 | 118 | 114
RPMI 5 mM glucose + 10% dialyzed FBS, 5.12 µM | 115 | 109 | 108
RPMI 5 mM glucose + 10% dialyzed FBS, 15.4 µM | 110 | 122 | 70.8
RPMI 5 mM glucose + 10% dialyzed FBS, 46.1 µM | 52.1 | 96.5 | 20.3

P12-Ichikawa [4]
Conditions | AUC of viability dose-response curve
HPLM + 10% dialyzed FBS | 464
RPMI 5 mM glucose + 10% FBS | 443
RPMI 5 mM glucose + 10% dialyzed FBS | 451

O=C(N[C@@H](c1ccccc1)[C@@H]1CCCCN1)c1cccc(C(F)(F)F)c1Cl
AUC of viability dose-response curve
Conditions | NOMO1 [5] | P12-Ichikawa [4] | SEM cells [6]
HPLM + 10% dialyzed FBS | 444 | 465 | 461
RPMI 5 mM glucose + 10% FBS | 462 | 465 | 450
RPMI 5 mM glucose + 10% dialyzed FBS | 408 | 464 | 407

C[C@H](NCc1ccc2c(c1)nc(NC(=O)c1ccc(-c3cn[nH]c3)s1)n2CCc1ccccc1)C(C)(C)C
AUC of viability dose-response curve
Conditions | NOMO1 [5] | P12-Ichikawa [4] | SEM cells [6]
HPLM + 10% dialyzed FBS | 373 | 410 | 248
RPMI 5 mM glucose + 10% FBS | 404 | 403 | 242
RPMI 5 mM glucose + 10% dialyzed FBS | 396 | 412 | 224

C[C@@H](NCCCc1cccc(C(F)(F)F)c1)c1cccc2ccccc12
cell viability [%]
Conditions | P12-Ichikawa [1] | SEM cells [3]
HPLM + 10% dialyzed FBS, 0.000781 µM | 120 | 121
HPLM + 10% dialyzed FBS, 0.00234 µM | 123 | 119
HPLM + 10% dialyzed FBS, 0.00702 µM | 117 | 116
HPLM + 10% dialyzed FBS, 0.0211 µM | 125 | 117
HPLM + 10% dialyzed FBS, 0.0632 µM | 109 | 118
HPLM + 10% dialyzed FBS, 0.19 µM | 118 | 111
HPLM + 10% dialyzed FBS, 0.569 µM | 114 | 120
HPLM + 10% dialyzed FBS, 1.71 µM | 118 | 122
HPLM + 10% dialyzed FBS, 5.12 µM | 113 | 113
HPLM + 10% dialyzed FBS, 15.4 µM | 100 | 106
HPLM + 10% dialyzed FBS, 46.1 µM | 115 | 105
RPMI 5 mM glucose + 10% FBS, 0.000781 µM | – | 112
RPMI 5 mM glucose + 10% FBS, 0.00234 µM | – | 124
RPMI 5 mM glucose + 10% FBS, 0.00702 µM | – | 119
RPMI 5 mM glucose + 10% FBS, 0.0211 µM | – | 131
RPMI 5 mM glucose + 10% FBS, 0.0632 µM | – | 107
RPMI 5 mM glucose + 10% FBS, 0.19 µM | – | 113
RPMI 5 mM glucose + 10% FBS, 0.569 µM | – | 116
RPMI 5 mM glucose + 10% FBS, 1.71 µM | – | 114
RPMI 5 mM glucose + 10% FBS, 5.12 µM | – | 96.5
RPMI 5 mM glucose + 10% FBS, 15.4 µM | – | 94.3
RPMI 5 mM glucose + 10% FBS, 46.1 µM | – | 111

AUC of viability dose-response curve
Conditions | NOMO1 [5] | P12-Ichikawa [4] | SEM cells [6]
HPLM + 10% dialyzed FBS | 455 | 455 | 467
RPMI 5 mM glucose + 10% FBS | 418 | 455 | 458
RPMI 5 mM glucose + 10% dialyzed FBS | 447 | 439 | 445
